The record followed here is patent publication US12473304B2, “Heterocyclic PAD4 inhibitors” (BRISTOL-MYERS SQUIBB COMPANY, priority 2020, dated 2025).

In this assay the target is human PAD4 (hPAD4) (Homo sapiens (Human), UniProt Q9UM07). Description: RFMS Human PAD4 Functional Assay 1. The class given is biochemical. The settings on record: RFMS assay 1; 5 nM hPAD4, 250 μM BAEE substrate, 50 μM calcium, 37° C. As for the experimental part:
RFMS Human PAD4 Functional Assay 1:
Compounds were solubilized in 100% DMSO to achieve all) mM compound concentration. Compound stock solutions were stored at RT. A series of dilutions were prepared in DMSO and mixed 8 times with 20 μL mixing volume. Final top concentration of compound in the assay is 50 μM. Final assay conditions were as follows: • Reaction volume: 26 μl • Assay buffer: 25 mM hepes, pH 7.5, 5 mM NaCl, 1 mM DTT, 0.2 mg/ml BSA, 0.01% CHAPS, 50 μM Calcium, and 5 μM TPEN • Final concentrations: 5 nM hPAD4 enzyme, 250 μM BASE, and 0.5% DMSO • Total incubation time: 30 mins compound and enzyme preincubation at 37° C., 90 min enzyme/substrate reaction, 30 min reaction with phenyl glyoxal at 37° C. • Stop solution: 40 μl 5% TCA in ACN
0.13 μL of compound solution was added to 13 μL of 10 nM PAD4 in assay buffer. After 30 min 13 μl of 500 μM of BAEE was added in 25 mM hepes, pH 7.5, 5 mM NaCl, 1 mM DTT, 0.2 mg/ml BSA, 0.01% CHAPS, 50 μM Calcium, 5 μM TPEN was added and the reaction incubated for 90 min at 37° C. The enzymatic reaction was quenched by addition of 15 μl of 6.1N TCA, 100% Final Concentration is 20%, 35 μl of 8.5 mM phenyl glyoxal (final concentration 4 mM) is then added and the reaction is incubated for 30 min at 37° C.
After 30 minutes the plates are spun down to remove all precipitate. The enzyme reaction was quenched with an equal volume of methanol containing internal standard (modified citrulline). Samples were loaded onto the Rapid Fire RF300 system (Agilent) wherein they were first sipped for 1000 ms and then directly loaded to a C18 separations cartridge using a mixture of acetonitrile containing 0.01% formic acid for 3000 ms desalting. The flow rate of the mobile phase was 1.5 ml/min. Once the samples were eluted from the cartridge, a mobile phase of acetonitrile containing 0.01% formic acid was used to move the samples into the mass spectrometer for 4000 ms at a flow rate of 1.25 ml/min/Sciex API5500 triple quadrupole mass spectrometer (Applied Biosystems) equipped with ESI was used to analyze the peptidyl citrulline and internal standard ions.
MRM transition of product and internal standard were monitored at m/z 424.5 to 350.4 and m/z 293 to 247 respectively. The dwell time for each transition was set at 200 ms, and the ESI voltage was used at 5500 with a source temperature of 400° C. Extracted ion peaks for each transition were integrated using the Rapid Fire Integrator software. Peak area of analyte was normalized with internal standard.).

Chain of human PAD4 (hPAD4) (Q9UM07 whole entry): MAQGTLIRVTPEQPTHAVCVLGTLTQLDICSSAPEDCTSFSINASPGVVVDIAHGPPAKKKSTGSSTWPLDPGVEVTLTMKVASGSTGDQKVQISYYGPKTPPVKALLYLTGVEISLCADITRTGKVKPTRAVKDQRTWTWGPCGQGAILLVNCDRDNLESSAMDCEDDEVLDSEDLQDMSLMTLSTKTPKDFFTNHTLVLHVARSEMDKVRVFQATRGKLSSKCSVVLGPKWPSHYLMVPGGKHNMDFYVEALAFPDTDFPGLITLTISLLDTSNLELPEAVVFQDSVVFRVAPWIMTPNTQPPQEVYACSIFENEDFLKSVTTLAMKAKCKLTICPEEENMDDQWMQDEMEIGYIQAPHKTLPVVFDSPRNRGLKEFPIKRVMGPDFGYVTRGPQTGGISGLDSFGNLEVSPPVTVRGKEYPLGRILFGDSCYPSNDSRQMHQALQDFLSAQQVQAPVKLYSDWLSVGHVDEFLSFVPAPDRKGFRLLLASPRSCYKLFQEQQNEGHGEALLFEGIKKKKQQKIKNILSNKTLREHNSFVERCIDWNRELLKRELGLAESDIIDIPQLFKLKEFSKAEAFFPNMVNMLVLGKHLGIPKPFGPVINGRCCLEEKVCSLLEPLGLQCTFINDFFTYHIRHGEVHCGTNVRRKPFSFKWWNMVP

`Cc1c(-c2cc3ccc(-c4ccc(C(N)=O)c(F)c4)cc3n2CC2CC2)nn2cc(C(=O)N3C[C@H](N)C[C@@H](F)C3)ccc12` [Example 93, 4-(2-(6-((3R,5R)-3-Amino-5-fluoropiperidine-1-carbonyl)-3-methylpyrazolo[1,5-a]pyridin-2-yl)-1-(cyclopropylmethyl)-1H-indol-6-yl)-2-fluorobenzamide]: the IC50 (usually the concentration needed to halve the response being measured) is 220 nM.
With `COc1cc(C(=O)N2CCC[C@@H](N)C2)cn2nc(-c3cc4cccc(OCCn5cc(N)cn5)c4n3CC3CC3)c(C)c12` [Example 558, (R)-(2-(7-(2-(4-Amino-1H-pyrazol-1-yl)ethoxy)-1-(cyclopropylmethyl)-1H-indol-2-yl)-4-methoxy-3-methylpyrazolo[1,5-a]pyridin-6-yl)(3-aminopiperidin-1-yl)methanone], the IC50 turned out to be 100 nM.
For the compound `COc1cc(C(=O)N2C[C@H](N)C[C@@H](F)C2)cn2nc(-c3cc4ccnc(OCCn5ccnc5C)c4n3CC3CC3)c(C)c12` [Example 594, ((3R,5R)-3-Amino-5-fluoropiperidin-1-yl)(2-(1-(cyclopropylmethyl)-7-(2-(2-methyl-1H-imidazol-1-yl)ethoxy)-1H-pyrrolo[2,3-c]pyridin-2-yl)-4-methoxy-3-methylpyrazolo[1,5-a]pyridin-6-yl)methanone], the concentration for half-maximal inhibition (IC50) was 390 nM.
For `Cc1c(-c2cc3cccc(OCC4CNC(=O)C4)c3n2CC2CC2)nn2cc(C(=O)N3C[C@H](N)C[C@@H](F)C3)cc(F)c12` (single isomer, unassigned) [Example 567], the half-inhibitory concentration (IC50) stood at 20 nM.
With `Cc1c(-c2cc3cccc(C4CCN(C(=O)c5cccs5)CC4)c3n2CC2CC2)nn2cc(C(=O)N3CCC[C@@H](N)C3)ccc12` [Example 464, (R)-(3-aminopiperidin-1-yl)(2-(1-(cyclopropylmethyl)-7-(1-(thiophene-2-carbonyl)piperidin-4-yl)-1H-indol-2-yl)-3-methylpyrazolo[1,5-a]pyridin-6-yl)methanone], the half-inhibitory concentration (IC50) amounted to 180 nM.
Next, `COc1cc(C(=O)N2CC3CCC2[C@@H]3N)cc2sc(-c3cc4ccc(-c5ccc(C(N)=O)c(F)c5)nc4n3CC3CC3)c(C)c12` (stereo partly drawn) [Example 133, 4-(2-(6-((7R)-7-Amino-2-azabicyclo[2.2.1]heptane-2-carbonyl)-4-methoxy-3-methylbenzo[b]thiophen-2-yl)-1-(cyclopropylmethyl)-1H-pyrrolo[2,3-b]pyridin-6-yl)-2-fluorobenzamide]: 129 nM.
With `Cc1c(-c2cc3cccc(OC[C@H]4CCC(=O)N4)c3n2CC2CC2)nn2cc(C(=O)N3CCC[C@@H](N)C3)ccc12` [Example 586, (R)-5-(((2-(6-((R)-3-Aminopiperidine-1-carbonyl)-3-methylpyrazolo[1,5-a]pyridin-2-yl)-1-(cyclopropylmethyl)-1H-indol-7-yl)oxy)methyl)pyrrolidin-2-one], the IC50 is 150 nM.
Next, `COc1nc(C(=O)N2CC3(CNC3)C2)cn2nc(-c3cc4cccnc4n3CC3CC3)c(C)c12` [Example 116, (2-(1-(Cyclopropylmethyl)-1H-pyrrolo[2,3-b]pyridin-2-yl)-4-methoxy-3-methylpyrazolo[1,5-a]pyrazin-6-yl)(2,6-diazaspiro[3.3]heptan-2-yl)methanone]: 22800 nM.
For `COc1cc(C(=O)N2C[C@H](N)C[C@@H](F)C2)cn2nc(-c3cc4ccc(N5CCC(N(C)C(C)=O)CC5)cc4n3CC3CC3)c(C)c12` [Example 244, N-[1-(2-{6-[(3R,5R)-3-Amino-5-fluoropiperidine-1-carbonyl]-4-methoxy-3-methylpyrazolo[1,5-a]pyridin-2-yl}-1-(cyclopropylmethyl)-1H-indol-6-yl)piperidin-4-yl]-N-methylacetamide], the IC50 amounted to 70 nM.
Turning to `Cc1c(-c2cc3ccc(-c4ccc5c(c4)CNC5=O)nc3n2CC2CC2)nn2cc(C(=O)N3C[C@H](N)C[C@@H](F)C3)ccc12` [Example 81, 5-(2-(6-((3R,5R)-3-Amino-5-fluoropiperidine-1-carbonyl)-3-methylpyrazolo[1,5-a]pyridin-2-yl)-1-(cyclopropylmethyl)-1H-pyrrolo[2,3-b]pyridin-6-yl)isoindolin-1-one], the 50% inhibitory concentration (IC50) was 384 nM.
In the case of `Cc1c(-c2cc3ccc(-c4ccc(F)c(O)c4)nc3n2CC2CC2)nn2cc(C(=O)N3CC4CCC3[C@@H]4N)ccc12` (stereo partly drawn) [Example 75, ((7R)-7-Amino-2-azabicyclo[2.2.1]heptan-2-yl)(2-(1-(cyclopropylmethyl)-6-(4-fluoro-3-hydroxyphenyl)-1H-pyrrolo[2,3-b]pyridin-2-yl)-3-methylpyrazolo[1,5-a]pyridin-6-yl)methanone], the half-inhibitory concentration (IC50) amounted to 166 nM.
Consider `Cc1c(-c2cc3ccc(-c4ccc(O)c(F)c4)cc3n2CC2CC2)nn2cc(C(=O)N3C[C@H](N)C[C@@H](F)C3)ccc12` [Example 94, ((3R,5R)-3-Amino-5-fluoropiperidin-1-yl)(2-(1-(cyclopropylmethyl)-6-(3-fluoro-4-hydroxyphenyl)-1H-indol-2-yl)-3-methylpyrazolo[l,5-a]pyridin-6-yl)methanone], for which the IC50 came to 934 nM.
Turning to `COc1cc(C(=O)N2CCC[C@@H](N)C2)cn2nc(-c3cc4ccc(-c5cccc6[nH]ncc56)cc4n3CC3CC3)c(C)c12` [Example 238, (3R)-1-{2-[1-(Cyclopropylmethyl)-6-(1H-indazol-4-yl)-1H-indol-2-yl]-4-methoxy-3-methylpyrazolo[1,5-a]pyridine-6-carbonyl}piperidin-3-amine], the IC50 was 420 nM.
Next, `COc1cc(C(=O)N2CC3CCC2[C@@H]3N)cn2nc(-c3cc4ccc(-c5ccc(OC(F)F)cc5)cc4n3CC3CC3)c(C)c12` (stereo partly drawn) [Example 26, ((7R)-7-Amino-2-azabicyclo[2.2.1]heptan-2-yl)(2-(1-(cyclopropylmethyl)-6-(4-(difluoromethoxy)phenyl)-1H-indol-2-yl)-4-methoxy-3-methylpyrazolo[1,5-a]pyridin-6-yl)methanone]: 449 nM; `Cc1c(-c2cc3ccc(-c4ccc(CNS(C)(=O)=O)cc4)cc3n2CC2CC2)nn2cc(C(=O)N3CCC[C@@H](N)C3)ccc12` [Example 342, N-{[4-(2-{6-[(3R)-3-Aminopiperidine-1-carbonyl]-3-methylpyrazolo[1,5-a]pyridin-2-yl}-1-(cyclopropylmethyl)-1H-indol-6-yl)phenyl]methyl}methanesulfonamide]: 930 nM.
In the case of `Cc1c(-c2cc3cccc(C4CCN(C(=O)[C@@H]5CCC[C@H](O)C5)CC4)c3n2CC2CC2)nn2cc(C(=O)N3CCC[C@@H](N)C3)ccc12` [Example 440, ((R)-3-aminopiperidin-1-yl)(2-(1-(cyclopropylmethyl)-7-(1-((1R,3S)-3-hydroxycyclohexane-1-carbonyl)piperidin-4-yl)-1H-indol-2-yl)-3-methylpyrazolo[1,5-a]pyridin-6-yl)methanone], the IC50 came to 60 nM.
On to `COc1cc(-c2ccc3cc(-c4oc5cc(C(=O)N6CC7CCC6[C@@H]7N)ccc5c4C)n(CC4CC4)c3n2)ccn1` (stereo partly drawn) [Example 172, ((7R)-7-Amino-2-azabicyclo[2.2.1]heptan-2-yl)(2-(1-(cyclopropylmethyl)-6-(2-methoxypyridin-4-yl)-1H-pyrrolo[2,3-b]pyridin-2-yl)-3-methylbenzofuran-6-yl)methanone], for which the concentration for half-maximal inhibition (IC50) was 8770 nM.
In the case of `Cc1c(-c2cc3cc(F)cc(C4CCN(C(=O)[C@H]5CC[C@@H](O)CC5)CC4)c3n2CC2CC2)nn2cc(C(=O)N3CCC[C@@H](N)C3)ccc12` [Example 485, ((R)-3-Aminopiperidin-1-yl)(2-(1-(cyclopropylmethyl)-5-fluoro-7-(1-((1s,4s)-4-hydroxycyclohexane-1-carbonyl)piperidin-4-yl)-1H-indol-2-yl)-3-methylpyrazolo[1,5-a]pyridin-6-yl)methanone], the IC50 amounted to 150 nM.
Regarding `COc1cc(C(=O)N2CCC[C@@H](N)C2)cn2nc(-c3cc4ccnc(OCCn5ccnc5C)c4n3CC3CC3)c(C)c12` [Example 595, (R)-(3-Aminopiperidin-1-yl)(2-(1-(cyclopropylmethyl)-7-(2-(2-methyl-1H-imidazol-1-yl)ethoxy)-1H-pyrrolo[2,3-c]pyridin-2-yl)-4-methoxy-3-methylpyrazolo[1,5-a]pyridin-6-yl)methanone], the concentration for half-maximal inhibition (IC50) was 1280 nM.
In the case of `Cc1c(-c2cc3ccc(C(C)(O)C(F)(F)F)nc3n2CC2CC2)nn2cc(C(=O)N3C[C@H](N)C[C@@H](F)C3)ccc12` (single isomer, unassigned) [Example 106], the IC50 came out at 208 nM.
